In US7943577B2, “Alpha-fetoprotein peptides and uses thereof” (Albany Medical College, priority 2001, dated 2011):
“Also recorded” adds a separate entry of the source. Values belong to the compound of their own block, whether it stands above or below them. Square brackets hold non-standard residues; d marks the D form. Ends that are not written are not given here. Hyp = O=C(O)[C@@H]1C[C@@H](O)CN1

Experiments:
immature mouse uterus = assay: Immature mouse uterine growth assay; type: in vivo; settings: for biological activity of gel filtration fraction of aged peptide: 1 μg i.p.; for uterotrophic effect of agent alone: peptide even at a dose of 10 μg/mouse, FIG. 13a; for inhibition of the uterotrophic effect of estradiol: Pep 1 μg i.p. one hour before E2 0.5 μg i.p.; for inhibition of the uterotrophic effect of estradiol / inhibition of the uterotrophic effect of tamoxifen: FIG. 13b; for inhibition of the uterotrophic effect of tamoxifen: Pep 1 μg i.p. one hour before Tam 1.0 μg i.p.
Method: Immature Mouse Uterine Growth Assay.
Differences between groups were evaluated, employing the non-parametric Wilcoxon Sum of Ranks test (one-sided).

[1] = system: MCF-7 human breast cancer xenografts; assay: Human breast cancer xenograft assay, MCF-7; type: in vivo; settings: for tumor volumes versus E2 alone group (Wilcoxon ranks-sum test): MCF-7, day 30 (FIG. 7: 20 days and 30 days) after tumor implantation, p<0.05; for growth (tumor volume) of MCF-7 xenografts in E2-supplemented SCID mice: peptide 1 μg i.p. twice a day, tamoxifen 50 μg i.p. once a day, 30-day observation
Method: Human Breast Cancer Xenograft Assay. A bioassay for anti-breast cancer activity was performed according to Bennett et al. (23;24). Confluent MCF-7 human breast cancer cells were trypsinized into suspension and pelleted by centrifugation at 200×g. The pellet was then solidified into a fibrin clot by exposing it to 10 μl of fibrinogen (50 mg/ml) and 10 μl of thrombin (50 units/ml). The solid mass of MCF-7 cells was then cut into pieces 1.5 mm in diameter. A tumor segment of ˜1.5 mm in diameter was implanted under the kidney capsule of an immunodeficient ICR-SCID male mouse (Taconic Farms) that weighed about 25 g. Estrogen supplementation was accomplished by s.c. implantation of a silastic tubing capsule containing solid E2 inserted on the day of tumor implantation. Peptide was injected i.p. every twelve hours at a dose of 1 μg per mouse. Tumor growth was monitored during survival laparotomy at 10 day intervals by measurement of the diameters of the short (d) and long axes (D) of each tumor, using a dissecting microscope equipped with an ocular micrometer. Tumor volumes were calculated using the formula (π/6) (d)^2D, assuming the tumor shape to be an ellipsoid of revolution around its long axis (D). There were five to seven replicate mice included in each treatment group. Mean tumor volume±standard error in each group was calculated for display of growth curves. Significance of differences between groups were tested using the one-sided Wilcoxon Sum of Ranks Test.

[2] = system: MCF-7/Tam human breast cancer xenografts; assay: Human breast cancer xenograft assay, tamoxifen-resistant MCF-7 subline; type: in vivo; settings: for growth (tumor volume) of tamoxifen-resistant MCF-7 subline xenografts in E2-supplemented SCID mice: peptide 1 μg i.p. twice a day, tamoxifen 50 μg i.p. once a day, 30-day observation
Method: (§1) Cell Lines. T47D and MDA-231 human breast cancer cell lines were purchased from the American Type Culture Collection (Manassas, Va.). Growth medium for T47D cells consisted of RPMI 1640 (Life Technologies, Germantown, Md.) supplemented with 10% fetal bovine serum (Life Technologies) and 8 μg/ml bovine insulin (Sigma, St. Louis, Mo.). […] The MCF-7 cell line was obtained from Dr. Alberto C. Baldi, Institute of Experimental Biology and Medicine, Buenos Aires, Argentina, and was maintained as previously described by Gierthy et al. (1991). […] Human Breast Cancer Xenograft Assay. A bioassay for anti-breast cancer activity was performed according to Bennett et al. (23;24). […] The pellet was then solidified into a fibrin clot by exposing it to 10 μl of fibrinogen (50 mg/ml) and 10 μl of thrombin (50 units/ml). The solid mass of MCF-7 cells was then cut into pieces 1.5 mm in diameter. A tumor segment of ˜1.5 mm in diameter was implanted under the kidney capsule of an immunodeficient ICR-SCID male mouse (Taconic Farms) that weighed about 25 g. […] Peptide was injected i.p. every twelve hours at a dose of 1 μg per mouse. Tumor growth was monitored during survival laparotomy at 10 day intervals by measurement of the diameters of the short (d) and long axes (D) of each tumor, using a dissecting microscope equipped with an ocular micrometer. […] There were five to seven replicate mice included in each treatment group. Mean tumor volume±standard error in each group was calculated for display of growth curves. Significance of differences between groups were tested using the one-sided Wilcoxon Sum of Ranks Test.

[3] = system: T47D human breast cancer xenografts; assay: Human breast cancer xenograft assay, T47D; type: in vivo; settings: for growth (tumor volume) of T47D xenografts in E2-supplemented SCID mice: peptide 1 μg i.p. twice a day, 30-day observation
Method: as §1

[4] = system: MDA-MB-231 human breast cancer xenografts; assay: Human breast cancer xenograft assay, MDA-MB-231; type: in vivo; settings: for growth (tumor volume) of ER− MDA-MB-231 xenografts: peptide 1 μg i.p. twice a day, tamoxifen 50 μg i.p. once a day, 30-day observation
Method: as §1

[5] = in vivo; cited from earlier work
[6] = system: MCF-7 breast cancer cells; settings: ERα-positive breast cancer (MCF-7) cells; Background of Example IV; cited from earlier work
[7] = system: human breast cancer lines; settings: DeFreest et al., J Pept Res 63:409-419, 2004; cited from earlier work
[8] = target: T1, estrogen receptor (rabbit uterine cytosol) (Oryctolagus cuniculus, UniProt G1SML6); assay: Assessment of estrogen receptor antagonism ([3H]estradiol binding)
T1 sequence (G1SML6 1-598): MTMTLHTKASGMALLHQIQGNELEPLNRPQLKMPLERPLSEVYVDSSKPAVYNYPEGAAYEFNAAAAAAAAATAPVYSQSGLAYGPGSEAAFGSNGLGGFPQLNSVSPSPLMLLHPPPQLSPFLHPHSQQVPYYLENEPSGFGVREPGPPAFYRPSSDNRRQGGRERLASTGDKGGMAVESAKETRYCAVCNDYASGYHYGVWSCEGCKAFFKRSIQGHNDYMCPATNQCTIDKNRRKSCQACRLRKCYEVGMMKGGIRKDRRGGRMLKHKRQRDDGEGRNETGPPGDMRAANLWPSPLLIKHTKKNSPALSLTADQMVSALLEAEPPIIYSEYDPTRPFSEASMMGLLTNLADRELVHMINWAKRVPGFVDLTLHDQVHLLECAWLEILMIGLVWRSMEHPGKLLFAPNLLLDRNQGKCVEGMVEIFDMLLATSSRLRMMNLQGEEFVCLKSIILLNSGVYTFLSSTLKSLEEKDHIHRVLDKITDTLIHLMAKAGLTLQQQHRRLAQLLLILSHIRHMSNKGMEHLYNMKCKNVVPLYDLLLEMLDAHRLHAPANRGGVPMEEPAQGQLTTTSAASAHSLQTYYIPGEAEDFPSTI
Method: Assessment of Estrogen Receptor Antagonism. Commercially obtained rabbit uteri (Pel-Freez Biological, Rogers, A R) were used as a source of estrogen receptor. Uteri were pulverized in a stainless steel impact mortar under liquid nitrogen and homogenized (20% w/v) in assay buffer (10 mM Tris (pH 7.4), 1.5 mM EDTA, 10% glycerol, 10 mM monothioglycerol, and 10 mM sodium molybdate] on ice. Centrifugation (50,000×g) for 1 h yielded a supernatant containing cytosol, which was adjusted with assay buffer to 2.5 mg protein/ml. All incubations were carried out in triplicate, each containing 100 μl of cytosol, 20 μl of […] 6,7-[3H]estradiol (50 Ci/mmol; DuPont Pharmaceuticals Company, Wilmington, Del., U.S.A.), and 80 μl of putative antagonist in assay buffer. Total count tubes received 20 μl of [3H]estradiol and 180 μl of assay buffer. After incubation overnight at 4° C., all but the total count tubes received 300 μl of dextran-coated charcoal suspension; tubes were agitated for 15 min and then centrifuged (1,000×g) for 15 min. Supernatants were decanted into counting vials, scintillant was added, and protein-bound tritium was determined by liquid scintillation counting.

Compound: QMTPVNPG (listed as Homo sapiens) [SEQ ID NO: 2]
- biological activity of stored inactive peptide after brief treatment with 4M urea (immature mouse uterus): restored its biological activity
- % Inhibition of E2-Stimulated Growth of Immature Mouse Uterus ± SE (immature mouse uterus; Stored over 1 year (lyophilized, −20° C.), 1 μg per mouse i.p.): 0 ± 2%
- biological activity of gel filtration fraction of aged peptide (immature mouse uterus; higher molecular weight fraction (FIG. 2b, left side of peak)): biologically inactive
- optimal dose for inhibition of estrogen-stimulated growth of mouse uterus (immature mouse uterus; i.p., FIG. 1a): 1 μg/mouse
- biological activity of gel filtration fraction of aged peptide (immature mouse uterus; lower molecular weight fraction (FIG. 2b, right side of peak)): active
- anti-estrotrophic activity as a function of storage time (shelf-life) (immature mouse uterus; stored at −20° C. in the lyophilized state, 1 μg per mouse, FIG. 1b): diminished to insignificant levels after five weeks of storage
- biological activity of aged peptide (immature mouse uterus; stored in the lyophilized state at −20° C. for over one year): completely biologically inactive

Compound: CC/C(=C(\c1ccccc1)c1ccc(OCCN(C)C)cc1)c1ccccc1 [tamoxifen]
- uterotrophic effect of agent alone (immature mouse uterus; i.p.): stimulate the growth of the immature mouse uterus
- tumor volumes versus E2 alone group (Wilcoxon ranks-sum test) [1]: significantly different
- growth (tumor volume) of MCF-7 xenografts in E2-supplemented SCID mice [1]: prevented growth; also recorded: no increase in tumor volume
- growth (tumor volume) of tamoxifen-resistant MCF-7 subline xenografts in E2-supplemented SCID mice [2]: resistant to tamoxifen in vivo; also recorded: only minimally effective
- growth (tumor volume) of T47D xenografts in E2-supplemented SCID mice [3]: prevented growth
- growth (tumor volume) of ER− MDA-MB-231 xenografts [4]: Neither peptide nor tamoxifen were effective; also recorded: did not affect the growth
- users with uterine cancer as side effect [5]: 0.2%

Compound: Cyclo[EMTOVNOGQ]
- expression of estrogen receptor-α (ERα) [6]: downregulation of expression of estrogen receptor-α (ERα)
- proliferation of human breast cancer lines in immunocompromised mice [7]: inhibit proliferation of human breast cancer lines

- interference with E2 binding to ER ([8]; peptide concentration range of 10^−10M to 10^−5M): no interference with E2 binding to ER
Compound: EMTOVNOG (EMT[Hyp]VN[Hyp]G; listed as Homo sapiens) [SEQ ID NO: 4]
- inhibition of the uterotrophic effect of estradiol (immature mouse uterus; listed as Pep): significantly different
- inhibition of the uterotrophic effect of estradiol (immature mouse uterus; listed as peptide): inhibited the uterotrophic effect of tamoxifen as well as that of estradiol
- inhibition of the uterotrophic effect of tamoxifen (immature mouse uterus): significantly inhibited tamoxifen's uterotrophic effect
- inhibition of the uterotrophic effect of tamoxifen (immature mouse uterus; listed as Pep): significantly different
- inhibition of the uterotrophic effect of tamoxifen (immature mouse uterus; listed as peptide): inhibited the uterotrophic effect of tamoxifen
- uterotrophic effect of agent alone (immature mouse uterus; i.p.): no uterotrophic effect whatsoever
- tumor volumes versus E2 alone group (Wilcoxon ranks-sum test) [1]: significantly different
- growth (tumor volume) of MCF-7 xenografts in E2-supplemented SCID mice [1]: prevented growth; also recorded: no significant increase in tumor volume
- tumor volumes versus E2 alone group (Wilcoxon Ranks Sum Test) ([2]; MCF-7 subline made resistant to tamoxifen, day 30, p<0.05): significantly different
- growth (tumor volume) of tamoxifen-resistant MCF-7 subline xenografts in E2-supplemented SCID mice [2]: completely prevented the xenograft growth; also recorded: completely stopped the growth
- tumor volumes versus E2 alone group (Wilcoxon Ranks Sum Test) ([3]; T47D, day 30, p<0.05): significantly different
- growth (tumor volume) of T47D xenografts in E2-supplemented SCID mice [3]: completely prevented tumor growth
- differences in tumor volumes between groups ([4]; MDA-MB-231, FIG. 11): no differences in tumor volumes
- growth (tumor volume) of ER− MDA-MB-231 xenografts [4]: Neither peptide nor tamoxifen were effective; also recorded: had no effect on the growth
- competition/interference with estrogen binding to the estrogen receptor ([8]; cell-free system): does not interfere with the binding of [^3H]estradiol to the estrogen receptor

Compound: EMTPVNPG (listed as Homo sapiens) [SEQ ID NO: 6]
- biological activity of stored inactive peptide after brief treatment with 4M urea (immature mouse uterus): regenerated by 4M urea
